Measurements published in ChEMBL document CHEMBL1268971, “4,5-Dihydro-1H-pyrazolo[4,3-h]quinazolines as potent and selective Polo-like kinase 1 (PLK1) inhibitors” (Bioorg Med Chem Lett, 2010).
Converted amounts (≈) assume the structure as drawn.

How the values were obtained:
[1] = target: Cyclin-dependent kinase 2/cyclin A (Homo sapiens, UniProt P24941); assay: Inhibition of CDK2/Cyclin A; format: protein-complex assay
A2780 = assay: cells; conditions: Homo sapiens, A2780, 72 h
[2] = Solubility of the compound at pH 7; format: physicochemical; conditions: buffer
[3] = target: Serine/threonine-protein kinase PLK2 (Homo sapiens, UniProt Q9NYY3); assay: Inhibition of PLK2
[4] = target: Serine/threonine-protein kinase PLK3 (Homo sapiens, UniProt Q9H4B4); assay: Inhibition of PLK3
[5] = target: Serine/threonine-protein kinase PLK1 (Homo sapiens, UniProt P53350)
[6] = target: Serine/threonine-protein kinase Nek6 (Homo sapiens, UniProt Q9HC98); assay: Inhibition of NEK6
[7] = Permeability of the compound by PAMPA; format: ADME
[8] = Inhibition of PDGFR
[9] = target: T1, Receptor-type tyrosine-protein kinase FLT3 (Homo sapiens, UniProt P36888); assay: Inhibition of FLT3
T1 sequence (P36888 whole entry): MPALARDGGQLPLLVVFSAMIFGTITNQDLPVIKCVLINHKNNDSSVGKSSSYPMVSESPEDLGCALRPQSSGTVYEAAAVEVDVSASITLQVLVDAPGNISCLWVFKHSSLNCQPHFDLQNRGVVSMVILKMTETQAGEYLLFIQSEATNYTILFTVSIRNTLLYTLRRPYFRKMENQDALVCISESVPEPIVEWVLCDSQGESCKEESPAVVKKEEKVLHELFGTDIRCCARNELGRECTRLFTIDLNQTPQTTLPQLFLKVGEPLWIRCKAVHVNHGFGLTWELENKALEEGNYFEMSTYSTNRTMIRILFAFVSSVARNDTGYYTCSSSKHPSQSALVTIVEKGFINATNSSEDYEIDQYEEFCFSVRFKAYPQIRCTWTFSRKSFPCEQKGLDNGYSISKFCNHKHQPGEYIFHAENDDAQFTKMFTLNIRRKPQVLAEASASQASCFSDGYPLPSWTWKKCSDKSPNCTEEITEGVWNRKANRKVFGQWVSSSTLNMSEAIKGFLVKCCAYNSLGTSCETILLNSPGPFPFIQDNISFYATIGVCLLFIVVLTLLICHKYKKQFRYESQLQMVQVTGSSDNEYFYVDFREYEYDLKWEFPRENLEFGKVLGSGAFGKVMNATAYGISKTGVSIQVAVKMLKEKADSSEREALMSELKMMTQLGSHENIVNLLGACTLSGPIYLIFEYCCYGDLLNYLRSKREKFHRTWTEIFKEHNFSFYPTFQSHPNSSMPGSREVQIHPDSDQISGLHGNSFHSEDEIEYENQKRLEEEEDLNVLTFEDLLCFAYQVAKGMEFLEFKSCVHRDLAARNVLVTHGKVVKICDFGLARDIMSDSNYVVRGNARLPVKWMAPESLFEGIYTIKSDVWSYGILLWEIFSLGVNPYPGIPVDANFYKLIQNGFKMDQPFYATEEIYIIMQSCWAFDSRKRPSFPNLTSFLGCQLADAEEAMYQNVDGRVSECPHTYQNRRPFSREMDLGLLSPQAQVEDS

[10] = Solubility of the compound at 105 Tween 80; format: physicochemical
[11] = Inhibition of casein kinase 2
[12] = Intrinsic clearance in human liver microsomes; format: ADME, Microsome
[13] = target: ALK tyrosine kinase receptor (Homo sapiens, UniProt Q9UM73); assay: Inhibition of ALK
[14] = AUC (0 to infinity) in CD1 mouse at 10 mg/kg, iv administered as single dose by LC/MS/MS analysis; format: ADME, organism-based; parameters: time infinity, dose 10 mg/kg, route intravenous; conditions: plasma
[15] = Clearance in CD1 mouse at 10 mg/kg, iv administered as single dose by LC/MS/MS analysis; format: ADME, organism-based; parameters: dose 10 mg/kg, route intravenous; conditions: in vivo
[16] = AUC (0 to infinity) in CD1 mouse at 10 mg/kg, po administered as single dose by LC/MS/MS analysis; format: ADME, organism-based; parameters: time infinity, dose 10 mg/kg, route oral; conditions: plasma
[17] = Terminal half life in CD1 mouse at 10 mg/kg, iv administered as single dose by LC/MS/MS analysis; format: ADME, organism-based; parameters: dose 10 mg/kg, route intravenous; conditions: in vivo, read-out: beta t1/2 (converted)
[18] = Volume of distribution at steady state in CD1 mouse at 10 mg/kg, iv administered as single dose by LC/MS/MS analysis; format: ADME, organism-based; parameters: dose 10 mg/kg, route intravenous; conditions: in vivo, read-out: Vdss
[19] = Oral bioavailability in CD1 mouse at 10 mg/kg administered as single dose by LC/MS/MS analysis; format: ADME, organism-based; conditions: in vivo
[20] = Cmax in CD1 mouse at 10 mg/kg, po administered as single dose by LC/MS/MS analysis; format: ADME, organism-based; parameters: dose 10 mg/kg, route oral; conditions: in vivo

Sequence of Serine/threonine-protein kinase PLK3 (Q9H4B4 whole entry): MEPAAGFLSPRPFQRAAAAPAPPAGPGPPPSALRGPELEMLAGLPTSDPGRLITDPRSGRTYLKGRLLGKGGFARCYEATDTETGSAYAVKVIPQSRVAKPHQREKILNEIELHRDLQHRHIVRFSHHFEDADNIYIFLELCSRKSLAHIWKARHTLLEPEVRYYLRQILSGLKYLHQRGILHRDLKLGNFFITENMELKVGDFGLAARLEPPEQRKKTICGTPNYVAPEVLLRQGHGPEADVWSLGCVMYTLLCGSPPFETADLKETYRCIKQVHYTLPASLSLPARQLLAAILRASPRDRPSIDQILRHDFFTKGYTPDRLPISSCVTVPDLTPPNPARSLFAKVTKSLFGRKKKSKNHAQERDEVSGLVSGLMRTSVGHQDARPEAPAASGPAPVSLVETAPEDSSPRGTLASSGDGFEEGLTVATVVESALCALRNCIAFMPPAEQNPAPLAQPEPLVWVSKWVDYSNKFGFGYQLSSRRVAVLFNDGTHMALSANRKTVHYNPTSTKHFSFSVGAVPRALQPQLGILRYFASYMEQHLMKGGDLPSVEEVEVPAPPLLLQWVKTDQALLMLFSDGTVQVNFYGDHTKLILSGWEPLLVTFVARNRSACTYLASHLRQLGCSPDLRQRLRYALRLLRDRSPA
Sequence of Serine/threonine-protein kinase PLK1 (P53350 whole entry): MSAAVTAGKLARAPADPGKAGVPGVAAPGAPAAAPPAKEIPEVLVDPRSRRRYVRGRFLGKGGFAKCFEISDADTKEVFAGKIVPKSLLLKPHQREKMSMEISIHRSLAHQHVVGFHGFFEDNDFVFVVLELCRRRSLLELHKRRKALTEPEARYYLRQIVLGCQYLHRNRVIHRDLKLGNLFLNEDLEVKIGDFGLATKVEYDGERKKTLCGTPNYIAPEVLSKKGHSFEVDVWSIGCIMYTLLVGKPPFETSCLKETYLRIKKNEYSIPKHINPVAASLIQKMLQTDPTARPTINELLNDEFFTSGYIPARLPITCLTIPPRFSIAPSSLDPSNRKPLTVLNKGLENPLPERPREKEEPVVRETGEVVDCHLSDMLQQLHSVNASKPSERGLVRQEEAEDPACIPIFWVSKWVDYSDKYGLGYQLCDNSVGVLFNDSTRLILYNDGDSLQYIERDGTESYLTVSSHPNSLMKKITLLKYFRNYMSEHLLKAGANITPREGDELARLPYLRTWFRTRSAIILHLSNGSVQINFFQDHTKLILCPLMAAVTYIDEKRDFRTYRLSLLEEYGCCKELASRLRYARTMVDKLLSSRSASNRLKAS
Sequence of Serine/threonine-protein kinase PLK2 (Q9NYY3 whole entry): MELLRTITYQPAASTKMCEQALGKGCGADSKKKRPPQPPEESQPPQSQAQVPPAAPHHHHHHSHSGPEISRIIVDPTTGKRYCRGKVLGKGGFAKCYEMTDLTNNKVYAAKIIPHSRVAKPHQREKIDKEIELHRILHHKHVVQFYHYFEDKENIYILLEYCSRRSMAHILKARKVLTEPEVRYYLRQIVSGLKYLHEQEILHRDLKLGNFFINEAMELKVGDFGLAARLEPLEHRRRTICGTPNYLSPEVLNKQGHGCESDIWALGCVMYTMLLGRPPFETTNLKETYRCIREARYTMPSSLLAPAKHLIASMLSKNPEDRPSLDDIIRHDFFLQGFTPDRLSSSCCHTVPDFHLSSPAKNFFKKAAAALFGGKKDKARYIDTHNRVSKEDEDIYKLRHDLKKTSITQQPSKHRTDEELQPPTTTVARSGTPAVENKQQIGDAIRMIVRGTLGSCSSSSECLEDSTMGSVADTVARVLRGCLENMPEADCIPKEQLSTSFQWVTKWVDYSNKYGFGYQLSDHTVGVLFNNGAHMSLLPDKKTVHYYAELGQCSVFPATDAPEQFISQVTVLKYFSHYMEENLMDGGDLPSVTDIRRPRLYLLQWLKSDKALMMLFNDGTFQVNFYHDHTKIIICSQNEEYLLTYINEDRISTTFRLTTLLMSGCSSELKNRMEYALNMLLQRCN
Sequence of Serine/threonine-protein kinase Nek6 (Q9HC98 whole entry): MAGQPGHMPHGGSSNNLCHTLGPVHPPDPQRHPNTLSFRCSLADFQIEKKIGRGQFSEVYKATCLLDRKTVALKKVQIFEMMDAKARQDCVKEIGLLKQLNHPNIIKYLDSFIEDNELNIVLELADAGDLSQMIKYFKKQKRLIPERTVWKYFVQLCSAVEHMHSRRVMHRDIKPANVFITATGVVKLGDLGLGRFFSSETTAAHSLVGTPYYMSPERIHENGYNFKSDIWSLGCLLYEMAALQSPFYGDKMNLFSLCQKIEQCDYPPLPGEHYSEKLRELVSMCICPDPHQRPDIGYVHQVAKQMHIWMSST
Sequence of ALK tyrosine kinase receptor (Q9UM73 whole entry): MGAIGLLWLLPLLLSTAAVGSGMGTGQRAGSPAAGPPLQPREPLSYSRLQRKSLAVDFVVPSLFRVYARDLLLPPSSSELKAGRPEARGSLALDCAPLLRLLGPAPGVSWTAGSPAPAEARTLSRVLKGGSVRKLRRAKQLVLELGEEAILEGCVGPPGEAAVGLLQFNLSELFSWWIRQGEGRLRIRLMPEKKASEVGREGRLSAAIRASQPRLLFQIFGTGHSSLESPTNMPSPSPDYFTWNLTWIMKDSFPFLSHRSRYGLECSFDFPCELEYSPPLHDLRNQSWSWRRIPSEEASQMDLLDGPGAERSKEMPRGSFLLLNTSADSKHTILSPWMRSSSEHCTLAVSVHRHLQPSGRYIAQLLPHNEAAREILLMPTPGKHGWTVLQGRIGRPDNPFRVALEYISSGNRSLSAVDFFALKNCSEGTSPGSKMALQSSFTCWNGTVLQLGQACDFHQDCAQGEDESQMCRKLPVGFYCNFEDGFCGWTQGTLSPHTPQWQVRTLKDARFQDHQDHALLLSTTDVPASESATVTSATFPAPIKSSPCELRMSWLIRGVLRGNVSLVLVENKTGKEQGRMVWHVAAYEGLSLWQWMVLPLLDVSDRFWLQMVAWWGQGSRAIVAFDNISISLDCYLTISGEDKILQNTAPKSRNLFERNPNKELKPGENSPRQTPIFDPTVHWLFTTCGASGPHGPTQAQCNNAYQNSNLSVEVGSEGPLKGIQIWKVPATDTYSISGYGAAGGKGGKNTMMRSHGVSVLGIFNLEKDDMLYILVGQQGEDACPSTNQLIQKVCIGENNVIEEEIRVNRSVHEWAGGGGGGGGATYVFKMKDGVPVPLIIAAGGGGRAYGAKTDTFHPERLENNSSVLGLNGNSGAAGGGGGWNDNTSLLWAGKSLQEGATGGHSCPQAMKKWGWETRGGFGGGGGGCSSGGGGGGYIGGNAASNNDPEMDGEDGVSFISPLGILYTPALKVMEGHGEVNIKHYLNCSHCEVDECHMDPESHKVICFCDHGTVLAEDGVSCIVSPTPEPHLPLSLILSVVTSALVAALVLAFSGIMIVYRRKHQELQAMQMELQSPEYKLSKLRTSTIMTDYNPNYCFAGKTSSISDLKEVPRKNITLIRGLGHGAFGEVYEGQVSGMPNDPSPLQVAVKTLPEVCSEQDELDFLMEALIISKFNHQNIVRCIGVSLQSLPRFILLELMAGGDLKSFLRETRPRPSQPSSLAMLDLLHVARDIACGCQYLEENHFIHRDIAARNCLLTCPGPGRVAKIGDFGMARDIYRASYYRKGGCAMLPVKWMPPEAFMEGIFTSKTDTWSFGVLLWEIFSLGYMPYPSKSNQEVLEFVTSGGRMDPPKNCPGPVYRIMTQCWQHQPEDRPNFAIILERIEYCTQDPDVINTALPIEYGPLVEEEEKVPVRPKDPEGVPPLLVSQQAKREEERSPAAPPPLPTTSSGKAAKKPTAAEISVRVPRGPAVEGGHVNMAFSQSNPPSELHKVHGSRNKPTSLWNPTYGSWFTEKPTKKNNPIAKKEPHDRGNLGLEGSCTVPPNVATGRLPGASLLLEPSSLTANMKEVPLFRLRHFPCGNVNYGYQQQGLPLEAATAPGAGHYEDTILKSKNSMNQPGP

| SMILES | IC50 [1] | IC50 (A2780) | solubility [2] | IC50 [3] | IC50 [4] | IC50 [5] | also measured |
| --- | --- | --- | --- | --- | --- | --- | --- |
| CN1CCN(c2ccc(OC(F)(F)F)c(Nc3ncc4c(n3)-c3c(c(C(N)=O)nn3CCCl)CC4)c2)CC1 | 2010 nM | 31 nM | 9 µM (≈ 4.96 µg/mL) | > 10000 nM | > 10000 nM | – | – |
| Cn1nc(C(N)=O)c2c1-c1nc(Nc3cc(N4CCN(C(=O)OC(C)(C)C)CC4)ccc3OC(F)(F)F)ncc1CC2 | 1130 nM | 1290 nM | – | 768 nM | – | – | – |
| Cn1nc(C(N)=O)c2c1-c1nc(Nc3cc(N4CC[N+](C)([O-])CC4)ccc3OC(F)(F)F)ncc1CC2 | > 10000 nM | 782 nM | > 225 µM | > 10000 nM | – | – | – |
| Cn1nc(C(N)=O)c2c1-c1nc(Nc3cc(N4CCN(C(=O)N5CCNCC5)CC4)ccc3OC(F)(F)F)ncc1CC2 | 622 nM | 538 nM | 85 µM (≈ 51.1 µg/mL) | 190 nM | – | – | – |
| COCCn1nc(C(N)=O)c2c1-c1nc(Nc3cc(N4CCN(C)CC4)ccc3OC(F)(F)F)ncc1CC2 | > 10000 nM | 75 nM | 136 µM (≈ 74.3 µg/mL) | > 10000 nM | > 10000 nM | 15 nM | – |
| CN1CCC(Nc2ccc(OC(F)(F)F)c(Nc3ncc4c(n3)-c3c(c(C(N)=O)nn3C)CC4)c2)CC1 | 1020 nM | 1090 nM | > 225 µM | 3420 nM | – | – | – |
| CN1CCCN(c2ccc(OC(F)(F)F)c(Nc3ncc4c(n3)-c3c(c(C(N)=O)nn3C)CC4)c2)CC1 | > 10000 nM | 941 nM | 95 µM (≈ 49.1 µg/mL) | > 10000 nM | > 10000 nM | 25 nM | – |
| Cn1nc(C(N)=O)c2c1-c1nc(Nc3cc(N4CCNCC4)ccc3OC(F)(F)F)ncc1CC2 | > 10000 nM | 30 nM | 114 µM (≈ 55.7 µg/mL) | > 10000 nM | 1430 nM | – | IC50 [6]: 595 nM; Papp [7]: 7.22 ×10⁻⁶ cm/s; IC50 [8]: > 10000 nM; IC50 [9]: 194 nM; solubility [10]: 1100 µg/mL (≈ 2.25 mM); IC50 [11]: 59 nM; CLint scaled [12]: 6.9 mL/min/kg; IC50 [13]: > 10000 nM |
| Cn1nc(C(N)=O)c2c1-c1nc(Nc3cc(N4CCC(N5CCCC5)CC4)ccc3OC(F)(F)F)ncc1CC2 | > 10000 nM | 583 nM | 133 µM (≈ 74 µg/mL) | > 10000 nM | > 10000 nM | 33 nM | – |
| Cn1nc(C(N)=O)c2c1-c1nc(Nc3ccccc3OC(F)(F)F)ncc1CC2 | 1760 nM | 6410 nM | < 1 µM | 206 nM | 32 nM | 117 nM | – |
| Cn1nc(C(N)=O)c2c1-c1nc(Nc3cc(NC4CCNC4)ccc3OC(F)(F)F)ncc1CC2 (configuration not stated) | 414 nM | 2220 nM | 171 µM (≈ 83.5 µg/mL) | 762 nM | – | – | – |
| CN1CCCC1CCNc1ccc(OC(F)(F)F)c(Nc2ncc3c(n2)-c2c(c(C(N)=O)nn2C)CC3)c1 (configuration not stated) | 969 nM | 2560 nM | 157 µM (≈ 83.3 µg/mL) | 429 nM | – | – | – |
| CN1CCN(c2ccc(OC(F)(F)F)c(Nc3ncc4c(n3)-c3[nH]nc(C(N)=O)c3CC4)c2)CC1 | > 10000 nM | 93 nM | 12 µM (≈ 5.86 µg/mL) | > 10000 nM | > 10000 nM | 4 nM | – |
| CN1CCN(c2ccc(OC(F)(F)F)c(Nc3ncc4c(n3)-c3c(c(C(N)=O)nn3CCF)CC4)c2)CC1 | > 10000 nM | 14 nM | 18 µM (≈ 9.62 µg/mL) | > 10000 nM | > 10000 nM | 4 nM | AUC(0-inf) [14]: 10.2 µM·h; IC50 [6]: > 10000 nM; Papp [7]: 50 ×10⁻⁶ cm/s; IC50 [8]: > 10000 nM; clearance [15]: 40.3 mL/min/kg; IC50 [9]: 216 nM; AUC(0-inf) [16]: 0.192 µM·h; half-life [17]: 44.4 min; Vd [18]: 1.53 L/kg; solubility [10]: 2100 µg/mL (≈ 3.93 mM); bioavailability [19]: 2%; IC50 [11]: 134 nM; Cmax [20]: 260 nM; CLint scaled [12]: 56.1 mL/min/kg; IC50 [13]: > 10000 nM |
| Cn1nc(C(N)=O)c2c1-c1nc(Nc3cc(N)ccc3OC(F)(F)F)ncc1CC2 | 1180 nM | 1080 nM | 31 µM (≈ 13 µg/mL) | 1280 nM | – | – | – |
| CCN1CCN(c2ccc(OC(F)(F)F)c(Nc3ncc4c(n3)-c3c(c(C(N)=O)nn3C)CC4)c2)CC1 | > 10000 nM | 34 nM | 33 µM (≈ 17 µg/mL) | 3390 nM | – | – | – |
| CCn1nc(C(N)=O)c2c1-c1nc(Nc3cc(N4CCN(C)CC4)ccc3OC(F)(F)F)ncc1CC2 | > 10000 nM | 11 nM | 21 µM (≈ 10.8 µg/mL) | > 10000 nM | > 10000 nM | 6 nM | – |
| Cn1nc(C(N)=O)c2c1-c1nc(Nc3cc([N+]4([O-])CC[N+](C)([O-])CC4)ccc3OC(F)(F)F)ncc1CC2 (configuration not stated) | > 10000 nM | > 10000 nM | 48 µM (≈ 25.7 µg/mL) | > 10000 nM | > 10000 nM | 2680 nM | – |
| CN1CCN(c2ccc(OC(F)(F)F)c(Nc3ncc4c(n3)-c3c(c(C(N)=O)nn3C(c3ccccc3)(c3ccccc3)c3ccccc3)CC4)c2)CC1 | > 10000 nM | 2100 nM | < 1 µM | – | – | > 10000 nM | – |
| CN1C(C)(C)CC(Nc2ccc(OC(F)(F)F)c(Nc3ncc4c(n3)-c3c(c(C(N)=O)nn3C)CC4)c2)CC1(C)C | 3020 nM | 1750 nM | 147 µM (≈ 84.2 µg/mL) | > 10000 nM | > 10000 nM | 964 nM | – |
